Measurements taken from patent US7517875B2, “Piperidine derivatives having CCR3 antagonism” (Teijin Limited, priority 2002, dated 2009).

Target: T1, CCR3 receptor (Homo sapiens, UniProt P51677)
T1 construct: expressed in transfected cells; host or cells: K562 cells
T1 sequence (P51677 1-355): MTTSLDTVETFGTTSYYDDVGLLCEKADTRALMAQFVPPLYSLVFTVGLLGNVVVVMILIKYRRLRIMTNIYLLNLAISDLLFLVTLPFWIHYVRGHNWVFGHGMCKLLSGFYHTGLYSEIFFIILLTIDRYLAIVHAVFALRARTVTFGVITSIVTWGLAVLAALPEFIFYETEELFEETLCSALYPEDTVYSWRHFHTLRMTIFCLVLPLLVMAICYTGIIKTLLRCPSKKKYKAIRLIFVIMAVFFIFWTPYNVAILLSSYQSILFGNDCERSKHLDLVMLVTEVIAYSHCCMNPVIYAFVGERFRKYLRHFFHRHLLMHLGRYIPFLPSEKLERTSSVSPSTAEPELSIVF
Test: Inhibition of eotaxin-induced intracellular calcium concentration increase in CCR3-expressing cells
Type: cell-based
Conditions: 2 μM concentration of compound; CCR3-expressing K562 cells; human eotaxin 0.5 μg/ml; read-out: inhibition of eotaxin-induced intracellular calcium concentration increase (Suppression)
Experimental: Measurement of Inhibiting Power of Test Compounds Against Eotaxin-Induced Intracellular Calcium Concentration Increase in CCR3-Expressing Cells
K562 cells stably expressing CCR3 receptor were used in the following method for measurement of the inhibiting power of compounds of the invention against intracellular calcium concentration increase.
The CCR3-expressing K562 cells were suspended in HBSS solution (Hanks' Balanced Salt Solution, Gibco BRL) containing 10 mM HEPES (N-[2-hydroxyethyl]piperazine-N′-[2-ethanesulfonic acid], Gibco BRL), and then 1 mM Fura-2 acetoxymethyl ester (product of Dojin Kagaku) was added to a final concentration of 1 μM and the mixture was incubated at 37° C. for 30 minutes. After rinsing the cells, they were added simultaneously with the test compound into a 96-well white plate (Falcon), the agonist was added after 5 minutes, the mixture was excited at 340 nm and 380 nm, and the 340/380 ratio was monitored to measure the intracellular calcium concentration. Human eotaxin (product of Genzyme Techne) (0.5 μg/ml) was used as an agonist. The inhibiting power of the test compound was determined by measuring the intracellular calcium concentration upon treatment of the CCR3-expressing K562 cells with the test compound 5 minutes before eotaxin stimulation, and calculating the suppression by the following formula. Suppression (%)={1−(A−B)/(C−B)}×100 (A: Intracellular calcium concentration upon stimulation with eotaxin after treatment with test compound, B: Intracellular calcium concentration without stimulation, C: Intracellular calcium concentration upon stimulation with eotaxin without treatment with test compound)

Compound	inhibition at 2 µM [%]
COCCNC(=O)c1cccc2[nH]c(NCC3CCN(Cc4cc(Cl)ccc4O)CC3)nc12 [1-4-10, 2-{[1-(5-chloro-2-hydroxy-benzyl)-piperidin-4-ylmethyl]-amino}-1H-benzimidazole-4-carboxylic acid (2-methoxy-ethyl)-amide]	≥ 80
CC(=O)NCCC(=O)Nc1cccc2[nH]c(NCC3CCN(Cc4cccc5ccccc45)CC3)nc12 [1-3-1, 3-acetylamino-N-{2-[(1-naphthalen-1-ylmethyl-piperidin-4-ylmethyl)-amino]-1H-benzimidazol-4-yl}-propionamide]	≥ 80
COC(=O)c1cccc2[nH]c(NCC3CCN(Cc4cc(Cl)cc(Cl)c4O)CC3)nc12 [1-4-1, 2-{[1-(3,5-dichloro-2-hydroxy-benzyl)-piperidin-4-ylmethyl]-amino}-1H-benzimidazole-4-carboxylic acid methyl ester]	20 to 50

Same assay, conditions: 10 μM concentration of compound; CCR3-expressing K562 cells; human eotaxin 0.5 μg/ml; read-out: inhibition of eotaxin-induced intracellular calcium concentration increase (Suppression)

Compound	inhibition at 10 µM [%]
Nc1cccc2[nH]c(NCC3CCN(Cc4ccc(Cl)c(Cl)c4)CC3)nc12 [1-3-61, N2-[1-(3,4-dichlorobenzyl)-piperidin-4-ylmethyl]-1H-benzimidazole-2,4-diamine]	≥ 80
Clc1ccc(CN2CCC(CNc3nc4ccccc4[nH]3)CC2)cc1Cl [1-1-1, (1H-benzoimidazol-2-yl)-[1-(3,4-dichloro-benzyl)-piperidin-4-ylmethyl]-amine]	≥ 80
O=C(O)c1ccc2[nH]c(NCC3CCN(CCCc4ccccc4)CC3)nc2c1 [1-5-20, 2-{[1-(3-phenyl-propyl)-piperidin-4-ylmethyl]-amino}-1H-benzimidazole-5-carboxylic acid]	50 to 80
c1ccc(CCCCN2CCC(CNc3nc4ccccc4[nH]3)CC2)cc1 [1-2-170, (1H-benzimidazol-2-yl)-[1-(4-phenyl-butyl)-piperidin-4-ylmethyl]-amine]	50 to 80
CCNC(=O)Nc1cccc2[nH]c(NCC3CCN(Cc4ccc(Cl)c(Cl)c4)CC3)nc12 [1-3-59, 1-(2-{[1-(3,4-dichloro-benzyl)-piperidin-4-ylmethyl]-amino}-1H-benzimidazol-4-yl)-3-ethyl-urea]	≥ 80
Cn1c(CN2CCC(CNc3nc4ccccc4[nH]3)CC2)cc2ccccc21 [1-2-1, (1H-benzimidazol-2-yl)-[1-(1-methyl-1H-indol-2-ylmethyl)-piperidin-4-ylmethyl]-amine]	≥ 80
